Literature values, collected in patent US7671051B2, “Inhibitors of 11-β-hydroxy steroid dehydrogenase type 1” (Biovitrum AB, priority 2001, dated 2010).

System: bone nodule formation

CC1(C)[C@@H](OC(=O)CCC(=O)O)CC[C@]2(C)[C@H]3C(=O)C=C4[C@@H]5C[C@@](C)(C(=O)O)CC[C@]5(C)CC[C@@]4(C)[C@]3(C)CC[C@@H]12 [carbenoxolone]
negative effect (of glucocorticoid) on bone nodule formation: blocked
